{
  "source": "patent US7875601B2",
  "about": "“Cancer treatment with epothilones” (Novartis AG, priority 1998, dated 2011)",
  "key": {"[1]": {"system": "human HCT-15 colon carcinoma", "assay": "Antitumor effect against s.c. transplanted HCT-15 tumors", "type": "in vivo, female BALB/c nude mice", "source_text": "Human colorectal adenocarcinoma cell line HCT-15 (ATCC CCL 225) is from the American Type Culture Collection (Rockville, Md., USA), and the cells are cultivated in vitro as recommended by the supplier. HCT-15 is an epithelial-like cell line. (Cancer Res. 39: 1020-25 [1979]) that is multi-drug resistant by virtue of over-expression of P-glycoprotein (P-gp, gp170, MDR-1;Anticancer Res. 11: 1309-12 [1991]; J. Biol. Chem. 264: 18031-40 [1989]; Int. J. Cancer 1991; 49: 696-703 [1991]) and glutathione-dependent resistance mechanisms (Int. J. Cancer 1991; 49: 688-95 [1991]).\n(§1) Female or male BALB/c nu/nu (nude) mice are kept under sterile conditions (10 to 12 mice per Type III cage) with free access to food and water. Mice weigh between 20 and 25 grams at the time of tumor implantation. Tumors are established by subcutaneous injection of cells (minimum 2×10^6 cells in 100 μl PBS or medium) in carrier mice (4-8 mice per cell line). The resulting tumors are serially passaged for a minimum of three consecutive transplantations prior to start of treatment. Tumor fragments (approx. 25 mg) are implanted s.c. into the left flank of animals with a 13-gauge trocar needle while the mice are exposed to Forene (Abbott, Switzerland) anesthesia.\n(§2) Tumor growth and body weights are monitored once or twice weekly. All treatments are administered intravenously (i.v.) and are initiated when a mean tumor volume of approximately 100 to 250 mm^3 is attained, depending upon the tumor type. Tumor volumes are determined using the formula […] (see Cancer Chemother. Pharmacol. 24:148-154, [1989]). Treatments with epothilone B vary the dose and the frequency of administration. Comparator agents are administered according to previously determined optimal treatment regimens. In addition to presenting changes in tumor volumes over the course of treatment, antitumor activity is expressed as T/C % (mean increase of tumor volumes of treated animals divided by the mean increase of tumor volumes of control animals multiplied by 100). Tumor. regression (%) represents the smallest mean tumor volume compared to the mean tumor volume at the start of treatment, according to the formula Regression (%)=(1−Vend/Vstart)×100(Vend=final mean tumor volume, Vstart=mean tumor volume at the start of treatment. Any animals in which the tumor has reached a size exceeding approximately 1.5 to 2.5 cm^3 are sacrificed. Details can be found below.\nTumor volumes are used as the primary indicator of activity of antitumor agents used alone or in combination, and changes in body weights are measured as an indicator of treatment tolerability."}, "[2]": {"system": "human COLO 205 colon tumors", "type": "in vivo, female BALB/c nude mice", "details": "75 mg/kg, day 32", "description": "as §1, §2"}, "KB-8511": {"system": "KB-8511", "details": "KB-8511 vs KB-31; cited from earlier work"}, "[3]": {"system": "KB-8511 (Epidermoid, MDR)", "assay": "Antiproliferative assay, KB-8511", "type": "cell-based, human", "details": "KB-8511 vs parental line", "description": "The human epidermal (mouth) carcinoma cell line KB-8511 (a P-gp over-expressing cell line derived from the epidermoid (mouth) KB-31 carcinoma cell line) is obtained from Dr. R. M. Baker, Roswell Park Memorial Institute (Buffalo, N.Y., USA) (for description see Akiyama et al., Somat. Cell. Mol. Genetics 11, 117-126 (1985) and Fojo A., et al., Cancer Res. 45, 3002-3007 (1985)) and is cultured as previously described (Meyer, T., et al., Int. J. Cancer 43 851-856 (1989)).\nAntiproliferative assays are performed as previously described (Int. J. Cancer 43, 851-6 (1989)). Briefly, cells are seeded at 1.5×10^3 cells/well into 96-well microtiter plates and incubated overnight. Compounds are added in serial dilutions on day 1. The plates are then incubated for an additional 2 to 5 days, allowing for at least one cell doubling (cell line dependent), after which the cells are fixed with 3.3% v/v glutaraldehyde, washed with water and stained with 0.05% w/v methylene blue. After washing, the dye is eluted with 3% v/v HCl and the optical density measured at 665 nm with a SpectraMax 340 (Bucherer, Basel, Switzerland). IC50 values are determined by a computerized system (SoftPro, Bucherer, Basel, Switzerland) using the formula (OD test−OD start)/(OD control−OD start)×100. IC50 is defined as the drug concentration which leads to 50% of cells per well compared to control cultures (100%) at the end of incubation period."}, "[4]": {"details": "75 mg/kg, i.v., on days 14 and 21"}, "[5]": {"details": "75 mg/kg, i.v., on days 14 and 21, mean ± SEM"}},
  "note": "Marks after values point to notes of the source that are not given here.",
  "data": [
    {"molecule": "O=c1[nH]cc(F)c(=O)[nH]1", "note": "[5-fluorouracil, reference compound]", "values": [
      {"measurement": "Regression", "setting": "[1]; [4]", "value": "none"},
      {"measurement": "T/C", "setting": "[1]; [4]", "value": 88, "unit": "%"},
      {"measurement": "% Body Weight Change", "setting": "[1]; [5]", "value": "9 ± 4", "unit": "%"},
      {"measurement": "D Body Weight", "setting": "[1]; [5]", "value": "2.0 ± 0.7", "unit": "g"},
      {"measurement": "D Tumor Volume (mm^3)", "setting": "[1]; [5]", "value": "1654 ± 824", "unit": "mm^3"},
      {"measurement": "deaths", "setting": "[1]; two 75 mg/kg administrations", "value": 50, "unit": "%"},
      {"measurement": "T/C", "setting": "[2]; i.v. every 7 days (days 14, 21, 28)", "value": 18, "unit": "%"},
      {"measurement": "Regression", "setting": "[2]; i.v. every 7 days", "value": "none"},
      {"measurement": "Δ Tumor Volume (mm^3)", "setting": "[2]; i.v. every 7 days", "value": "62 ± 12", "unit": "mm^3"}
    ]},
    {"molecule": "COc1cc2c(c(OC)c1OC)-c1ccc(OC)c(=O)cc1[C@@H](NC(C)=O)CC2", "note": "[colchicine]", "values": [
      {"measurement": "relative resistance when compared with the KB-31 cells", "setting": "KB-8511", "value": "~40", "unit": "fold"}
    ]},
    {"molecule": "CC(=O)O[C@H]1C(=O)[C@@]2(C)[C@H]([C@H](OC(=O)c3ccccc3)[C@]3(O)C[C@H](OC(=O)[C@H](O)[C@@H](NC(=O)c4ccccc4)c4ccccc4)C(C)=C1C3(C)C)[C@]1(OC(C)=O)CO[C@@H]1C[C@@H]2O", "note": "[paclitaxel, reference compound]", "values": [
      {"measurement": "relative resistance, IC50 (resistant line)/IC50 (parental line)", "setting": "[3]", "value": "(343)^a"}
    ]}
  ]
}
